Assay results: patent publication US20150018301A1, “LRRK-2-Mediated Neuronal Toxicity” (THE JOHNS HOPKINS UNIVERSITY, priority 2009, published 2015)

Assays:
[1] = target: T1, LRRK2 WT (Homo sapiens, UniProt Q5S007); test: In vitro kinase assay: LRRK2 autophosphorylation; assay type: biochemical; conditions: for LRRK2 autophosphorylation Average ± SEM: compound 16 μM, phosphorylation normalized to absence of compound, mean ± S.E.M. of three experiments
[2] = target: T1, LRRK2 WT; test: In vitro kinase assay: LRRK2-mediated MBP phosphorylation; assay type: biochemical; conditions: for MBP phosphorylation Average ± SEM: compound 16 μM, 30° C., 15 min, normalized to absence of compound, mean ± S.E.M. of three experiments

T1 sequence (Q5S007 whole entry): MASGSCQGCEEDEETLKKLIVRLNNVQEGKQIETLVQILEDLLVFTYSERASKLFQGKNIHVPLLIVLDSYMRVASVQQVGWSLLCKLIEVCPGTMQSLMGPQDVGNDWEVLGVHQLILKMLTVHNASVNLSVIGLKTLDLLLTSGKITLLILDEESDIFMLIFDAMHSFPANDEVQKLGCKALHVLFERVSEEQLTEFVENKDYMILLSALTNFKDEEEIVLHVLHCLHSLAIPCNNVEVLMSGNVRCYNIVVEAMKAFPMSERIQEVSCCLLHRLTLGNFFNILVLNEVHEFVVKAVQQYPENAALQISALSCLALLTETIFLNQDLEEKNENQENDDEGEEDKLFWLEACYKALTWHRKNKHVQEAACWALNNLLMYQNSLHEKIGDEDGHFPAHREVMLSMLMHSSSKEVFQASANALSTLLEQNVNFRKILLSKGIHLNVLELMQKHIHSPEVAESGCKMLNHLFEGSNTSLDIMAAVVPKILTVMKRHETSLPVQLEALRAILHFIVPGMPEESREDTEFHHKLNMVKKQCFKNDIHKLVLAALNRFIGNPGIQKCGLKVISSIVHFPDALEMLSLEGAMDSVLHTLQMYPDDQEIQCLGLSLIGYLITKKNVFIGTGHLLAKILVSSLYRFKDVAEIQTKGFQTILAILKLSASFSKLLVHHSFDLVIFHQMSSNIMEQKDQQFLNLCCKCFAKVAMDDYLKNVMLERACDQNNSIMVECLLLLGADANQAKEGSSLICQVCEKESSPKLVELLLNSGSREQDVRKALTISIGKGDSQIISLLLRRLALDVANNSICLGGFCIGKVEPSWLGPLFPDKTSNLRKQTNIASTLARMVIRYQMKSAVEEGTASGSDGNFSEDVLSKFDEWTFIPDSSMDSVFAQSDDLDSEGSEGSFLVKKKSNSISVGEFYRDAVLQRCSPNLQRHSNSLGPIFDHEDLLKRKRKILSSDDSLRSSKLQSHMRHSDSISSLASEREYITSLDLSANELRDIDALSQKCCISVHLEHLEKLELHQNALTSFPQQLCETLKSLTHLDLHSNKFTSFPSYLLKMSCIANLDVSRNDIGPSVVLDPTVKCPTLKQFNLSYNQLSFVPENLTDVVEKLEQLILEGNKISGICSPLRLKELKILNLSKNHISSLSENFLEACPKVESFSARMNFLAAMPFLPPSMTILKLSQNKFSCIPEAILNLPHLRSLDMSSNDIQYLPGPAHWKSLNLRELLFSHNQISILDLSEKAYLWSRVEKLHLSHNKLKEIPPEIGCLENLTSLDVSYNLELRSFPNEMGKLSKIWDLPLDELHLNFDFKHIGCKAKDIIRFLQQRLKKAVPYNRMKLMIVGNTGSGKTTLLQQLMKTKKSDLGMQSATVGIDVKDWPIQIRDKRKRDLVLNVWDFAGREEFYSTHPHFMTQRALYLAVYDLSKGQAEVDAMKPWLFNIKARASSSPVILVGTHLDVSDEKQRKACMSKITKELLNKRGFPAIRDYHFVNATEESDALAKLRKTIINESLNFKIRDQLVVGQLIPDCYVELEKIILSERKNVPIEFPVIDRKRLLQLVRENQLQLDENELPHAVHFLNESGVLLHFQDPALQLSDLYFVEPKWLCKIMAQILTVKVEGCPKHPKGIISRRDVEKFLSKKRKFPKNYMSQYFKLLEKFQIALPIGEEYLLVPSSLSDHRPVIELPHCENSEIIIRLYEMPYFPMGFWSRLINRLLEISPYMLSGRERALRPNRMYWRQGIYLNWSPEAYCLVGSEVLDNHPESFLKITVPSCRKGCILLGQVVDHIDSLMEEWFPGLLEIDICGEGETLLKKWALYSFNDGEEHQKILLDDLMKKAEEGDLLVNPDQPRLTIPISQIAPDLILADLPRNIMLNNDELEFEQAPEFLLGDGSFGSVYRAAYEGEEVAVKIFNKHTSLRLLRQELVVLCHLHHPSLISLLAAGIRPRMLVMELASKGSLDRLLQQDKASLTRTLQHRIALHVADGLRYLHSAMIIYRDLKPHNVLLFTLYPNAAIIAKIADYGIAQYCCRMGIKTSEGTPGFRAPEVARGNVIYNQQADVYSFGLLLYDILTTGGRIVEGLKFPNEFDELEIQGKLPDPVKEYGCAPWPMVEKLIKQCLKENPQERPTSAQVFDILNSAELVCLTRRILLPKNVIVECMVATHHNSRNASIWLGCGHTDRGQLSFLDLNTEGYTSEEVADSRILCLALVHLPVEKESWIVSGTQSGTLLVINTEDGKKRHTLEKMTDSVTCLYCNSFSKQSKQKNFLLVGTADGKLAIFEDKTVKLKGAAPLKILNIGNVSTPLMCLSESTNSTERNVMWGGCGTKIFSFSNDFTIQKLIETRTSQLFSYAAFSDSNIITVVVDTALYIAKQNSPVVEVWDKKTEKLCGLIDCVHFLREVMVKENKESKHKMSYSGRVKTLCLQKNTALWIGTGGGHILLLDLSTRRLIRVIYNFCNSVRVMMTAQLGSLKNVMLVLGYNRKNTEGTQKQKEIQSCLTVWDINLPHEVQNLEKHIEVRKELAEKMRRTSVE

Compound	LRRK2 autophosphorylation Average ± SEM [1]	MBP phosphorylation Average ± SEM [2]	effect on LRRK2 autophosphorylation ([1]; screen at 16 μM)	effect on LRRK2-mediated phosphorylation of MBP ([2]; screen at 16 μM)
NCCNS(=O)(=O)c1cccc2cnccc12 [Inhibitor 5]	53.8 ± 34.5 % of control	58.3 ± 22.9 % of control		
CNCCNS(=O)(=O)c1cccc2cnccc12 [Inhibitor 36]	80.9 ± 3.0 % of control	50.2 ± 29.4 % of control		
Cl.c1ccc(C2CN3CCSC3=N2)cc1 (centres unmarked) [Inhibitor 79]	75.0 ± 2.3 % of control	138.8 ± 33.9 % of control		
COCc1cc(O)c(O)c(O)c1-c1c(COC)cc(O)c(O)c1O [Inhibitor 67]	79.2 ± 24.2 % of control	123.2 ± 33.8 % of control		
Oc1ccc(-c2nc(-c3ccc(F)cc3)c(-c3ccncc3)[nH]2)cc1 [Inhibitor 51]	64.9 ± 20.9 % of control	125.5 ± 52.6 % of control		
N#C/C(=C\c1ccc(O)c(O)c1)C(=O)NCc1ccccc1 [Inhibitor 25]	78.5 ± 5.8 % of control	82.9 ± 17.7 % of control		
N#CC(C#N)=Cc1ccc([N+](=O)[O-])c(O)c1 [Inhibitor 26]	82.3 ± 10.5 % of control	114.3 ± 14.1 % of control		
C/C(O)=C(\C#N)C(=O)Nc1cc(Br)ccc1Br [Inhibitor 50]	66.8 ± 14.2 % of control	138.8 ± 53.5 % of control		
O=c1cc(N2CCOCC2)oc2c(-c3ccccc3)cccc12 [Inhibitor 29]	79.3 ± 3.6 % of control	75.5 ± 3.1 % of control		
CN(C)c1ccc(/C=C2\C(=O)Nc3ccccc32)cc1 [Inhibitor 54]	37.5 ± 13.9 % of control	112.8 ± 34.9 % of control		
C#COC1C(C(=O)O)[C@H]2CC[C@@H]1O2 (some centres unmarked) [Inhibitor 73]	78.8 ± 5.1 % of control	128.9 ± 9.4 % of control		
CC(C)(C)n1nc(-c2ccc(Cl)cc2)c2c(N)ncnc21 [Inhibitor 52]	45.7 ± 22.1 % of control	98.1 ± 44.2 % of control		
Cc1cc(O)c2c(=O)c3c(O)cc(O)c4c5c(O)cc(O)c6c(=O)c7c(O)cc(C)c8c1c2c(c34)c(c78)c65 [Inhibitor 32]	57.4 ± 30.1 % of control	160.9 ± 12 % of control		
CN[C@@H]1C[C@H]2O[C@@](C)([C@@H]1OC)n1c3ccccc3c3c4c(c5c6ccccc6n2c5c31)C(=O)NC4 [Inhibitor 6, Staurosporine, reference compound]	1.9 ± 1.0 % of control	9.2 ± 6.4 % of control	substantially inhibited	substantially inhibited
CN([C@@H](Cc1ccc(OS(=O)(=O)c2cccc3cnccc23)cc1)C(=O)N1CCN(c2ccccc2)CC1)S(=O)(=O)c1cccc2cnccc12 [Inhibitor 40]	83.1 ± 22.1 % of control	125.2 ± 68.8 % of control		
Cn1cnc2c(NCc3ccccc3)nc(NCCO)nc21 [Inhibitor 46]	72.5 ± 2.1 % of control	125.3 ± 45.6 % of control		
Cc1ccc(NC(=O)c2cccc(N(C)C)c2)cc1NC(=O)c1ccc(O)cc1 [Inhibitor 53]	89.2 ± 2.7 % of control	152.6 ± 38.0 % of control		
N#CC(C#N)=Cc1ccc(O)c(O)c1 [Inhibitor 11]	66.9 ± 2.0 % of control	55.5 ± 56.5 % of control		
COc1ccc(S(=O)(=O)N(CCO)c2ccccc2CN(C)C/C=C/c2ccc(Cl)cc2)cc1 [Inhibitor 41]	104.6 ± 26.6 % of control	164.7 ± 40.0 % of control		
N#C/C(=C\c1ccc(O)c(O)c1)C(N)=O [Inhibitor 13]	81.0 ± 13.4 % of control	117.3 ± 18.5 % of control		
N#C/C(=C/c1cc(Cl)cc(Cl)c1)c1cccnc1 [Inhibitor 10]	90.8 ± 30.7 % of control	45.2 ± 46.1 % of control		

Compound	LRRK2 autophosphorylation Average ± SEM [1]	MBP phosphorylation Average ± SEM [2]	effect on LRRK2 autophosphorylation ([1]; screen at 16 μM)	effect on LRRK2-mediated phosphorylation of MBP ([2]; screen at 16 μM)
CC1CNCCN1S(=O)(=O)c1cccc2cnccc12 (centres unmarked) [Inhibitor 4]	80.3 ± 8.2 % of control	88.0 ± 26.4 % of control		
CC1(C)[C@H](C=C(Cl)Cl)[C@@H]1C(=O)O[C@H](C#N)c1cccc(Oc2ccccc2)c1 [Inhibitor 80]	66.4 ± 17.4 % of control	76.9 ± 13.7 % of control		
C[C@@]12C(=O)OC(=O)[C@]1(C)[C@H]1CC[C@@H]2O1 [Inhibitor 72]	69.1 ± 8.8 % of control	109.7 ± 22.4 % of control		
COc1cc2ncc(-c3ccccc3)nc2cc1OC [Inhibitor 55]	61.2 ± 9.6 % of control	131.7 ± 34.2 % of control		
C[S+]([O-])c1ccc(-c2nc(-c3ccc(F)cc3)c(-c3ccncc3)[nH]2)cc1 (centres unmarked) [Inhibitor 3]	75.1 ± 7.8 % of control	105.9 ± 15.9 % of control		
CC(C)(C)c1cc(/C=C(\C#N)C(N)=S)cc(C(C)(C)C)c1O [Inhibitor 28]	69.8 ± 12.0 % of control	76.7 ± 4.5 % of control		
N#C/C(=C\c1ccc(O)c(O)c1)C(N)=S [Inhibitor 14]	80.5 ± 32.2 % of control	110.5 ± 29.3 % of control		
N#CC(C#N)=C(N)/C(C#N)=C/c1ccc2[nH]ccc2c1 [Inhibitor 27]	73.2 ± 8.8 % of control	79.5 ± 17.8 % of control		
N#CC(C#N)=Cc1cc(O)c(O)c(O)c1 [Inhibitor 12]	62.8 ± 15.8 % of control	65.9 ± 31.4 % of control		
COc1cc(/C=C(\C#N)C(N)=O)cc(CSc2nc3ccccc3s2)c1O [Inhibitor 8]	81.7 ± 27.1 % of control	81.5 ± 17.6 % of control		
CC(C)c1cc(/C=C(\C#N)C(=O)NCCCc2ccccc2)cc(C(C)C)c1O [Inhibitor 63]	68.5 ± 1.5 % of control	101.3 ± 25.3 % of control		
O=C1Nc2ccccc2/C1=C1\Nc2ccccc2C1=O [Inhibitor 69]	82.0 ± 4.2 % of control	110.3 ± 28.4 % of control		
O=S(=O)(c1cccc2cnccc12)N1CCCNCC1 [Inhibitor 38]	84.3 ± 21.9 % of control	120.4 ± 64.7 % of control		
CC(C)CC(NC(=O)[C@H](CCC(=O)O)NC(=O)CNC(=O)c1ccc(/C=C/C(=O)O)cc1)C(N)=O (some centres unmarked) [Inhibitor 84]	63.9 ± 12.0 % of control	124.1 ± 37.2 % of control		
O=S(=O)(c1cccc2c(Cl)cccc12)N1CCCNCC1 [Inhibitor 43]	71.6 ± 2.1 % of control	120.2 ± 39.6 % of control		
CC(C)C(C(=O)OC(C#N)c1cccc(Oc2ccccc2)c1)c1ccc(Cl)cc1 (centres unmarked) [Inhibitor 82]	80.4 ± 13.0 % of control	61.5 ± 54.0 % of control		
O=c1c(-c2ccc(O)cc2)coc2cc(O)ccc12 [Inhibitor 60]	81.0 ± 31.9 % of control	141.0 ± 50.8 % of control		
Nc1ncc2[nH]cnc2n1 [Inhibitor 44, 2-aminopurine]	95.3 ± 5.9 % of control	77.2 ± 86.4 % of control		
N=C(N)NCCNS(=O)(=O)c1cccc2cnccc12 [Inhibitor 37]	81.1 ± 17.3 % of control	106.7 ± 25.4 % of control		
CC1(C)[C@H](C=C(Br)Br)[C@@H]1C(=O)O[C@H](C#N)c1cccc(Oc2ccccc2)c1 [Inhibitor 81]	73.9 ± 2.2 % of control	99.6 ± 23.1 % of control		
O=C(O)c1cc(NCc2cc(O)ccc2O)ccc1O [Inhibitor 39, 2-hydroxy-5-(2,5-dihydroxybenzyl-amino) benzoic acid]	103.0 ± 4.4 % of control	148.9 ± 71.4 % of control		
